According to paper PMC7036909, “Discovery of Selective SIRT2 Inhibitors as Therapeutic Agents in B-Cell Lymphoma and Other Malignancies” (Molecules, 2020):

What was measured:
SIRT2 = biological target: T1, SIRT2 (Homo sapiens, UniProt Q8IXJ6); test: SIRT-Glo enzyme inhibition assay, SIRT2; settings: for IC50: SIRT2 IC50; for inhibition at 50 µM: read-out: SIRT2 percentage inhibition at 50 µM compound, 50 µM compound
T1 sequence (Q8IXJ6 1-389): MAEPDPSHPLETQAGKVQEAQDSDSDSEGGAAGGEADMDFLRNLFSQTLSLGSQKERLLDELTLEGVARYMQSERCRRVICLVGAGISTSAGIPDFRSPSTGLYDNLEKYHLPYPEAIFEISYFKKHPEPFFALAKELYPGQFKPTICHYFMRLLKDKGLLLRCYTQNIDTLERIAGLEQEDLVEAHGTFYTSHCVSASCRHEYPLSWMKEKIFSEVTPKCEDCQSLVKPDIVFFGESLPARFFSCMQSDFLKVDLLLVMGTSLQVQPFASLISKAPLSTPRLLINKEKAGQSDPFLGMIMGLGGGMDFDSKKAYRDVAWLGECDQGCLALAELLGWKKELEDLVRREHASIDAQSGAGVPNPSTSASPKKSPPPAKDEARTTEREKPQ
Procedure: (§1) SIRT1, SIRT2, and SIRT3 were purchased from Cayman Chemical. Enzyme inhibition assays were performed in 96-well black plates using the SIRT-Glo Assay (Promega Corp.) according to the manufacturer’s instructions. Compounds were dissolved in 100% DMSO and to make 5- or 10-mM stock solutions. For initial enzyme inhibition tests, 50 µM of inhibitory concentration was used. […] IC50 values were determined in triplicate and reported values are averages of two independent experiments.

SIRT1 = biological target: T2, SIRT1 (Homo sapiens, UniProt Q96EB6); test: SIRT-Glo enzyme inhibition assay, SIRT1; settings: for inhibition at 50 µM: read-out: SIRT1 percentage inhibition at 50 µM compound, 50 µM compound
T2 sequence (Q96EB6 1-747): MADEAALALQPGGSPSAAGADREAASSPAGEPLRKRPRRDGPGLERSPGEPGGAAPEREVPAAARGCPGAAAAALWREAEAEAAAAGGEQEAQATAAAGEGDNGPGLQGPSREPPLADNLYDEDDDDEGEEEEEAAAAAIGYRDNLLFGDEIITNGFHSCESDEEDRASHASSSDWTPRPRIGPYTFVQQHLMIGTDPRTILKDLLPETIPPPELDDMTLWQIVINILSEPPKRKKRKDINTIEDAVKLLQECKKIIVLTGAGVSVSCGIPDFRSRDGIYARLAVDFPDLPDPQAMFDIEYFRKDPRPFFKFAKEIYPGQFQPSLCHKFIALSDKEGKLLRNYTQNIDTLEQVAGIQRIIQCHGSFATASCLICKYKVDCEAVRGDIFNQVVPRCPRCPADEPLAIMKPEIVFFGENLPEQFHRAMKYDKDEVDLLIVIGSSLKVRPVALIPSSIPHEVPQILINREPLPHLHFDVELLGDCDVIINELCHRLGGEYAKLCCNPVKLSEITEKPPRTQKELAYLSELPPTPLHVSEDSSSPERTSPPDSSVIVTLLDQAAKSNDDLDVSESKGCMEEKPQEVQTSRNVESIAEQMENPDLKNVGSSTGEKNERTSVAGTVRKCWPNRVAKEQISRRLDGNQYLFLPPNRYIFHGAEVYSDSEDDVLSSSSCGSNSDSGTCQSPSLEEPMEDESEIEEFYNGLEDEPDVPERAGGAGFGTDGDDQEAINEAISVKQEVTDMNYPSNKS
Procedure: as §1

SIRT3 = biological target: T3, SIRT3 (Homo sapiens, UniProt Q9NTG7); test: SIRT-Glo enzyme inhibition assay, SIRT3; settings: for inhibition at 50 µM: read-out: SIRT3 percentage inhibition at 50 µM compound, 50 µM compound
T3 sequence (Q9NTG7 1-399): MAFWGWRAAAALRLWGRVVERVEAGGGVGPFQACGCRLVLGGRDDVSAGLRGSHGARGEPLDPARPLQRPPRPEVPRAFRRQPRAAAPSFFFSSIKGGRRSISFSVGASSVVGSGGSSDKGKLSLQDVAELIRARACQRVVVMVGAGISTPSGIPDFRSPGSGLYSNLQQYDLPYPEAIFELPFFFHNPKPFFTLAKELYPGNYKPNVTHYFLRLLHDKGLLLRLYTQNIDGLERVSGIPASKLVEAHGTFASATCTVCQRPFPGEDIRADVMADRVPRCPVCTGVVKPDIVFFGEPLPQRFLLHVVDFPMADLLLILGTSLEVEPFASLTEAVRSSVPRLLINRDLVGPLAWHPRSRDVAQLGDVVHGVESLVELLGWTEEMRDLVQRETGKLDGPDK
Procedure: as §1

IC50 (SIRT2)	inhibition at 50 µM (SIRT2)	inhibition at 50 µM (SIRT1)	Molecule	other results
			2-[(6-Bromo-2-hydroxynaphthalen-1-yl)methyl]-1-[4-(trifluoromethyl)phenyl]hex-5-yne-1,3-dione [Compound 46]	SIRT2 percentage inhibition at 50 µM compound (SIRT2): 88%; SIRT1 percentage inhibition at 50 µM compound (SIRT1): 28%
			2-[(6-Bromo-2-hydroxynaphthalen-1-yl)methyl]-3-(3-bromophenyl)-N-(furan-3-ylmethyl)-3-oxopropanamide [Compound 39]	SIRT2 percentage inhibition at 50 µM compound (SIRT2): 30%; SIRT1 percentage inhibition at 50 µM compound (SIRT1): 13%
			2-[(6-Bromo-2-hydroxynaphthalen-1-yl)methyl]-3-(4-acetamidophenyl)-3-oxopropanamide [Compound 28]	SIRT2 percentage inhibition at 50 µM compound (SIRT2): 58%; SIRT1 percentage inhibition at 50 µM compound (SIRT1): 0.0%
13 µM	89%	9%	Cc1ccc(C(=O)C(Cc2c(O)ccc3cc(Br)ccc23)C(N)=O)cc1 (stereo not shown) [Compound 4, 2-[(6-Bromo-2-hydroxynaphthalen-1-yl)methyl]-3-(4-methylphenyl)-3-oxopropanamide]	IC50 (SIRT1): > 200 µM
	70%	38%	Cc1cccc(C(=O)C(Cc2c(O)ccc3cc(Br)ccc23)C(N)=O)c1 (stereo not shown) [Compound 16, 2-[(6-Bromo-2-hydroxynaphthalen-1-yl)methyl]-3-(3-methylphenyl)-3-oxopropanamide]	
	3%	0%	Cc1ccccc1C(=O)C(Cc1c(O)ccc2cc(Br)ccc12)C(N)=O (stereo not shown) [Compound 17, 2-[(6-Bromo-2-hydroxynaphthalen-1-yl)methyl]-3-(2-methylphenyl)-3-oxopropanamide]	
	57%	0%	NC(=O)C(Cc1c(O)ccc2cc(Br)ccc12)C(=O)c1ccccc1 (stereo not shown) [Compound 18, 2-[(6-Bromo-2-hydroxynaphthalen-1-yl)methyl]-3-oxo-3-phenylpropanamide]	
1.9 µM	100%	0%	NC(=O)C(Cc1c(O)ccc2cc(Br)ccc12)C(=O)c1ccc(C(F)(F)F)cc1 (stereo not shown) [Compound 20, 2-[(6-Bromo-2-hydroxynaphthalen-1-yl)methyl]-3-(4-trifluoromethylphenyl)-3-oxopropanamide]	inhibition at 50 µM (SIRT3): 5%
12.6 µM	89%	0%	NC(=O)C(Cc1c(O)ccc2cc(Br)ccc12)C(=O)c1cccc(C(F)(F)F)c1 (stereo not shown) [Compound 21, 2-[(6-Bromo-2-hydroxynaphthalen-1-yl)methyl]-3-(3-trifluoromethylphenyl)-3-oxopropanamide]	inhibition at 50 µM (SIRT3): 15%
8.95 µM	91%	53%	NC(=O)C(Cc1c(O)ccc2cc(Br)ccc12)C(=O)c1cccc(Br)c1 (stereo not shown) [Compound 23, 2-[(6-Bromo-2-hydroxynaphthalen-1-yl)methyl]-3-(3-bromo)-3-oxopropanamide]	inhibition at 50 µM (SIRT3): 41%
	72%	34%	COc1ccc(C(=O)C(Cc2c(O)ccc3cc(Br)ccc23)C(N)=O)cc1 (stereo not shown) [Compound 24, 2-[(6-Bromo-2-hydroxynaphthalen-1-yl)methyl]-3-(4-methoxy)-3-oxopropanamide]	
12.4 µM	96%	35%	NC(=O)C(Cc1c(O)ccc2cc(Br)ccc12)C(=O)c1ccc(F)cc1 (stereo not shown) [Compound 25, 2-[(6-Bromo-2-hydroxynaphthalen-1-yl)methyl]-3-(4-fluoro)-3-oxopropanamide]	inhibition at 50 µM (SIRT3): 39%
	14%	12%	NC(=O)C(Cc1c(O)ccc2ccccc12)C(=O)c1cccc(Br)c1 (stereo not shown) [Compound 29, 3-(3-Bromophenyl)-2-[(2-hydroxynaphthalen-1-yl)methyl]-3-oxopropanamide]	
	32%	0%	COc1ccc2c(CC(C(N)=O)C(=O)c3cccc(Br)c3)c(O)ccc2c1 (stereo not shown) [Compound 30, 3-(3-Bromophenyl)-2-[(2-hydroxy-6-methoxynaphthalen-1-yl)methyl]-3-oxopropanamide]	
	37%	0%	NC(=O)C(Cc1c(O)c(Br)cc2ccccc12)C(=O)c1cccc(Br)c1 (stereo not shown) [Compound 31, 2-[(3-Bromo-2-hydroxynaphthalen-1-yl)methyl]-3-(3-bromophenyl)-3-oxopropanamide]	
	16%	0%	NC(=O)C(Cc1c(O)ccc2ccc(Br)cc12)C(=O)c1cccc(Br)c1 (stereo not shown) [Compound 32, 2-[(7-Bromo-2-hydroxynaphthalen-1-yl)methyl]-3-(3-bromophenyl)-3-oxopropanamide]	
4.75 µM	94%	0%	O=C(NCCO)C(Cc1c(O)ccc2cc(Br)ccc12)C(=O)c1cccc(Br)c1 (stereo not shown) [Compound 36, 2-[(6-Bromo-2-hydroxynaphthalen-1-yl)methyl]-3-(3-bromophenyl)-N-(2-hydroxyethyl)-3-oxopropanamide]	inhibition at 50 µM (SIRT3): 43%
7.62 µM	86%	28%	O=C(NCCCO)C(Cc1c(O)ccc2cc(Br)ccc12)C(=O)c1cccc(Br)c1 (stereo not shown) [Compound 37, 2-[(6-Bromo-2-hydroxynaphthalen-1-yl)methyl]-3-(3-bromophenyl)-N-(3-hydroxypropyl)-3-oxopropanamide]	inhibition at 50 µM (SIRT3): 46%
	22%	1%	O=C(c1cccc(Br)c1)C(Cc1c(O)ccc2cc(Br)ccc12)C(=O)N1CCOCC1 (stereo not shown) [Compound 38, 2-[(6-Bromo-2-hydroxynaphthalen-1-yl)methyl]-1-(3-bromophenyl)-3-(morpholin-4-yl)propane-1,3-dione]	
	53%	0%	COCCNC(=O)C(Cc1c(O)ccc2cc(Br)ccc12)C(=O)c1cccc(Br)c1 (stereo not shown) [Compound 41, 2-[(6-Bromo-2-hydroxynaphthalen-1-yl)methyl]-3-(3-bromophenyl)-N-(2-methoxyethyl)-3-oxopropanamide]	
	6%	3%	O=C(NCc1cccnc1)C(Cc1c(O)ccc2cc(Br)ccc12)C(=O)c1cccc(Br)c1 (stereo not shown) [Compound 42]	
6.5 µM	98%	0%	CNC(=O)CCNC(=O)C(Cc1c(O)ccc2cc(Br)ccc12)C(=O)c1cccc(Br)c1 (stereo not shown) [Compound 44, 2-[(6-Bromo-2-hydroxynaphthalen-1-yl)methyl]-3-(3-bromophenyl)-N-[2-(methylcarbamoyl)ethyl]-3-oxo-propanamide]	
	88%	10%	CN1CCN(C(=O)C(Cc2c(O)ccc3cc(Br)ccc23)C(=O)c2ccc(C(F)(F)F)cc2)CC1 (stereo not shown) [Compound 45, 2-[(6-Bromo-2-hydroxynaphthalen-1-yl)methyl]-1-(4-methylpiperazin-1-yl)-3-[4-(trifluoromethyl)phenyl]-propane-1,3-dione]	
1.57 µM	91%	8%	NC(=O)CCNC(=O)C(Cc1c(O)ccc2cc(Br)ccc12)C(=O)c1cccc(C(F)(F)F)c1 (stereo not shown) [Compound 53]	selectivity for SIRT2 over SIRT1 (SIRT1; SIRT2 versus SIRT1): > 400 fold; selectivity for SIRT2 over SIRT3 (SIRT3; SIRT2 versus SIRT3): > 800 fold; inhibition at 50 µM (SIRT3): 16%
